Test results taken from patent publication US6337417B1, “N-phenyltetrahydrophthalamic acid derivatives, methods of producing same, and herbicides containing same as effective components” (Central Glass Co., Ltd., priority 1994, dated 2002).

Tests used:
[1] = test system: ichibi (velvetleaf, Abutilon theophrasti); experiment: Experiment 3 foliage treatment: ichibi; assay type: in vivo; parameters: key: 5: completely killed; 4: seriously injured; 3: considerably injured; 2: somewhat injured; 1: slightly injured; 0: not injured (normally grown); conditions: 4 weeks after treatment
Description: (§1) Upon seedling stage (two- or three-leaved stage) of ichibi (velvetleaf, Abutilon theophrasti), onamomi (heartleaf cocklebur, Xanthium strumarium) (4L stage), noasagao (blue morningglory, Ipomoea indica) and ooinutade (pale smartweed, Persicaria lapathifolia) which were grown on a cultivated soil put in pots of 1/8850 ares, a selected compound obtained in a manner analogous to Example 8, in suspended wettable powder, was sprayed to each plant. After that, the pots were kept in a glass chamber to allow each plant to grow, and after the lapse of 4 weeks from the treatment with the selected compounds the herbicidal effects were evaluated. The evaluation of the herbicidal effects was similarly conducted as to that of Experiment 1.

[2] = test system: onamomi (heartleaf cocklebur, Xanthium strumarium); experiment: Experiment 3 foliage treatment: onamomi; assay type: in vivo; parameters: key: 5: completely killed; 4: seriously injured; 3: considerably injured; 2: somewhat injured; 1: slightly injured; 0: not injured (normally grown); conditions: 4 weeks after treatment
Description: as §1

[3] = test system: noasagao (blue morningglory, Ipomoea indica); experiment: Experiment 3 foliage treatment: noasagao; assay type: in vivo; parameters: key: 5: completely killed; 4: seriously injured; 3: considerably injured; 2: somewhat injured; 1: slightly injured; 0: not injured (normally grown); conditions: 4 weeks after treatment
Description: as §1

[4] = test system: ooinutade (pale smartweed, Persicaria lapathifolia); experiment: Experiment 3 foliage treatment: ooinutade; assay type: in vivo; parameters: key: 5: completely killed; 4: seriously injured; 3: considerably injured; 2: somewhat injured; 1: slightly injured; 0: not injured (normally grown); conditions: 4 weeks after treatment
Description: as §1

[5] = test system: ichibi (velvetleaf, Abutilon theophrasti); experiment: Experiment 6 foliage treatment: ichibi; assay type: in vivo; parameters: key: 5: completely killed; 4: seriously injured; 3: considerably injured; 2: somewhat injured; 1: slightly injured; 0: not injured (normally grown); conditions: foliage spray of wettable powder suspension, evaluated 4 weeks after treatment
Description: as §1, with “(4 L” for “(4L”, “11,” for “8,”, “as” for “as to”

[6] = test system: onamomi (heartleaf cocklebur, Xanthium strumarium); experiment: Experiment 6 foliage treatment: onamomi; assay type: in vivo; parameters: key: 5: completely killed; 4: seriously injured; 3: considerably injured; 2: somewhat injured; 1: slightly injured; 0: not injured (normally grown); conditions: foliage spray of wettable powder suspension, evaluated 4 weeks after treatment
Description: as §1, with “(4 L” for “(4L”, “11,” for “8,”, “as” for “as to”

[7] = test system: noasagao (blue morningglory, Ipomoea indica); experiment: Experiment 6 foliage treatment: noasagao; assay type: in vivo; parameters: key: 5: completely killed; 4: seriously injured; 3: considerably injured; 2: somewhat injured; 1: slightly injured; 0: not injured (normally grown); conditions: foliage spray of wettable powder suspension, evaluated 4 weeks after treatment
Description: as §1, with “(4 L” for “(4L”, “11,” for “8,”, “as” for “as to”

[8] = test system: ooinutade (pale smartweed, Persicaria lapathifolia); experiment: Experiment 6 foliage treatment: ooinutade; assay type: in vivo; parameters: key: 5: completely killed; 4: seriously injured; 3: considerably injured; 2: somewhat injured; 1: slightly injured; 0: not injured (normally grown); conditions: foliage spray of wettable powder suspension, evaluated 4 weeks after treatment
Description: as §1, with “(4 L” for “(4L”, “11,” for “8,”, “as” for “as to”

[9] = test system: ichibi (velvetleaf, Abutilon theophrasti); experiment: Experiment 9 foliage treatment: ichibi; assay type: in vivo; parameters: key: 5: completely killed; 4: seriously injured; 3: considerably injured; 2: somewhat injured; 1: slightly injured; 0: not injured (normally grown); conditions: foliage spray of wettable powder suspension, evaluated 4 weeks after treatment
Description: as §1, with “14,” for “8,”, “as” for “as to”

[10] = test system: onamomi (heartleaf cocklebur, Xanthium strumarium); experiment: Experiment 9 foliage treatment: onamomi; assay type: in vivo; parameters: key: 5: completely killed; 4: seriously injured; 3: considerably injured; 2: somewhat injured; 1: slightly injured; 0: not injured (normally grown); conditions: foliage spray of wettable powder suspension, evaluated 4 weeks after treatment
Description: as §1, with “14,” for “8,”, “as” for “as to”

[11] = test system: noasagao (blue morningglory, Ipomoea indica); experiment: Experiment 9 foliage treatment: noasagao; assay type: in vivo; parameters: key: 5: completely killed; 4: seriously injured; 3: considerably injured; 2: somewhat injured; 1: slightly injured; 0: not injured (normally grown); conditions: foliage spray of wettable powder suspension, evaluated 4 weeks after treatment
Description: as §1, with “14,” for “8,”, “as” for “as to”

[12] = test system: ooinutade (pale smartweed, Persicaria lapathifolia); experiment: Experiment 9 foliage treatment: ooinutade; assay type: in vivo; parameters: key: 5: completely killed; 4: seriously injured; 3: considerably injured; 2: somewhat injured; 1: slightly injured; 0: not injured (normally grown); conditions: foliage spray of wettable powder suspension, evaluated 4 weeks after treatment
Description: as §1, with “14,” for “8,”, “as” for “as to”

Question: With `CCc1cnc(C2=NC(C)(C(C)C)C(=O)N2)c(C(=O)O)c1` (stereo not shown) [Comparative agentC, Pursuit, reference compound] as the compound, how does the “Herbicidal Effect ichibi” value ([1]; 4 g/10a) read?
Answer: 3

Question: And the “Herbicidal Effect ichibi” value ([1]; 8 g/10a)?
Answer: 3

Question: What about the “Herbicidal Effect onamomi” value ([2]; 4 g/10a) of the same compound?
Answer: 4

Question: And the “Herbicidal Effect onamomi” value ([2]; 8 g/10a)?
Answer: 5

Question: What about the “Herbicidal Effect noasagao” value ([3]; 4 g/10a) of the same compound?
Answer: 3

Question: And the “Herbicidal Effect noasagao” value ([3]; 8 g/10a)?
Answer: 4

Question: What about the “Herbicidal Effect ooinutade” value ([4]; 4 g/10a) of the same compound?
Answer: 5

Question: And the “Herbicidal Effect ooinutade” value ([4]; 8 g/10a)?
Answer: 5

Question: What about the “Herbicidal Effect ichibi” value ([5]; 4 g/10a) of the same compound?
Answer: 3

Question: And the “Herbicidal Effect ichibi” value ([5]; 8 g/10a)?
Answer: 3

Question: What about the “Herbicidal Effect onamomi” value ([6]; 4 g/10a) of the same compound?
Answer: 4

Question: And the “Herbicidal Effect onamomi” value ([6]; 8 g/10a)?
Answer: 5

Question: What about the “Herbicidal Effect noasagao” value ([7]; 4 g/10a) of the same compound?
Answer: 3

Question: What about the “Herbicidal Effect noasagao” value ([7]; 8 g/10a) of the same compound?
Answer: 4

Question: And the “Herbicidal Effect ooinutade” value ([8]; 4 g/10a)?
Answer: 5

Question: What about the “Herbicidal Effect ooinutade” value ([8]; 8 g/10a) of the same compound?
Answer: 5

Question: What about the “Herbicidal Effet ichibi” value ([9]; 4 g/10a) of the same compound?
Answer: 3

Question: And the “Herbicidal Effet ichibi” value ([9]; 8 g/10a)?
Answer: 3

Question: And the “Herbicidal Effet onamomi” value ([10]; 4 g/10a)?
Answer: 4

Question: What about the “Herbicidal Effet onamomi” value ([10]; 8 g/10a) of the same compound?
Answer: 5

Question: And the “Herbicidal Effet noasagao” value ([11]; 4 g/10a)?
Answer: 3

Question: What about the “Herbicidal Effet noasagao” value ([11]; 8 g/10a) of the same compound?
Answer: 4

Question: What about the “Herbicidal Effet ooinutade” value ([12]; 4 g/10a) of the same compound?
Answer: 5

Question: What about the “Herbicidal Effet ooinutade” value ([12]; 8 g/10a) of the same compound?
Answer: 5

Question: For `COC(=O)Cc1sc(F)c(N(C(C)=O)C(=O)C2=C(C(=O)OC)CCCC2)c1Cl` [compound 11, N-acetyl-N-(4-chloro-2-fluoro-5-methoxycarbonylmethylthiophenyl)-3,4,5,6-tetrahydrophthalamic acid methyl ester], which melting point is on record?
Answer: 124 to 124.5 °C
